Like-named read-outs stand apart in the source and are kept apart here.

This assay addresses T1, K-RasG12C (1-169) (Homo sapiens, UniProt P01116, G12C).
T1 construct: Un-tagged recombinant K-Ras G12C (1-169) at 4 μM in Buffer A; hexahistidine (cleaved yes); made in house; host or cells: Escherichia coli BL21 (DE)
As to the kind of experiment: Mass spectrometric screen for extent of covalent labeling. The format is binding. The note with it: for percent covalent labeling at 10 µM: 10 micromolar; for Labeling % (10 micM) 24h: 10 micM compound, (plate) or (single) measurement. How it is done:
Un-tagged recombinant K-Ras G12C (1-169) at 4 μM in Buffer A was reacted with inhibitors at 200 μM or 10 μM (2% DMSO final). At 2, 6, and 24 hrs, 10 μL aliquots were removed and the reactions were stopped by addition of 1 μL 2% formic acid. The extent of modification was determined by mass spectrometry.

Setting [1] is: 2 h, 2 hrs, read-out: Percent reduction in activity of compound at 10 micromolar relative to control (no compound), 2 hrs.
Setting [2] is: 6 h, 6 hrs, read-out: Percent reduction in activity of compound at 10 micromolar relative to control (no compound), 6 hrs.
Where [3] appears, read: 24 h, 24 hrs, read-out: Percent reduction in activity of compound at 10 micromolar relative to control (no compound), 24 hrs.

With `C=CS(=O)(=O)NC1CCN(C(=O)[C@@H](C)Oc2ccc(Cl)cc2Cl)CC1` [JO-02-115C], the percent covalent labeling at 10 µM runs as follows: under setting [1], not above 5%; under setting [2], not above 5%; under setting [3], not above 5%.

Take `C=CS(=O)(=O)NC1CCN(C(=O)COc2cc(Cl)c(Cl)cc2Cl)CC1` [JO-02-115D]: the percent covalent labeling at 10 µM under setting [1] was not above 5%, the percent covalent labeling at 10 µM under setting [2] is not above 5% and the percent covalent labeling at 10 µM under setting [3] lay in the range of 20 to 40%.

With `C=CS(=O)(=O)NC1CCN(C(=O)C(C)Oc2cc(Cl)c(Cl)cc2Cl)CC1` (centres unmarked) [JO-02-116A], the percent covalent labeling at 10 µM by setting is: under setting [1], not above 5%; under setting [2], not above 5%; under setting [3], not above 5%.

On to `C=CS(=O)(=O)NC1CCN(C(=O)COc2nc(Cl)c(Cl)cc2Cl)CC1` [JO-02-116B], for which the percent covalent labeling at 10 µM was not above 5% under setting [1], not above 5% under setting [2] and not above 5% under setting [3].

In the case of `C=CS(=O)(=O)NCC(=O)Nc1cc(-c2cccs2)n[nH]1` [JO-02-125], the percent covalent labeling at 10 µM is, setting by setting: under setting [1], not above 5%; under setting [2], not above 5%; under setting [3], 20 to 40%.

As for `C=CS(=O)(=O)NCC(=O)Nc1cc(-c2ccc(Cl)cc2)n[nH]1` [JO-02-139E], the percent covalent labeling at 10 µM was not above 5% under setting [1], not above 5% under setting [2] and not above 5% under setting [3].

For `C=CS(=O)(=O)NC1CCN(C(=O)CNc2cc(Cl)c(Cl)cc2I)CC1` [JO-02-144], the percent covalent labeling at 10 µM under setting [1] is not above 5%, the percent covalent labeling at 10 µM under setting [2] is 5 to 20% and the percent covalent labeling at 10 µM under setting [3] was more than 60%.

Consider `O=C(NC1CCN(C(=O)CNc2cc(Cl)c(Cl)cc2I)CC1)C1CO1` (centres unmarked) [JO-02-152], for which the percent covalent labeling at 10 µM reads like this: under setting [1], not above 5%; under setting [2], not above 5%; under setting [3], 20 to 40%.

Regarding `C=CC(=O)N1CCN(C(=O)CNc2cc(Cl)c(Cl)cc2I)CC1` [JO-02-155], the percent covalent labeling at 10 µM under setting [1] was not above 5%, the percent covalent labeling at 10 µM under setting [2] lay in the range of 5 to 20% and the percent covalent labeling at 10 µM under setting [3] fell in the range of 40 to 60%.

On to `C=CC(=O)N1CC[C@@H](NC(=O)CNc2cc(Cl)c(Cl)cc2I)C1` [JO-02-157A (R)], for which the percent covalent labeling at 10 µM reads like this: under setting [1], not above 5%; under setting [2], not above 5%; under setting [3], not above 5%.

As to `C=CC(=O)N1CC[C@H](NC(=O)CNc2cc(Cl)c(Cl)cc2I)C1` [JO-02-157B (S)], the percent covalent labeling at 10 µM was not above 5% under setting [1], not above 5% under setting [2] and 5 to 20% under setting [3].

In the case of `C=CC(=O)N1CCN(C(=O)COc2ccc(Cl)cc2Cl)CC1` [JO-02-172], the “Labeling % (10 micM) 24h” value was “+ (plate) (+ <=5%)”. For the same compound, the “Labeling % (10 micM) 24h” value (Table 5) was “+ (plate) (+ <=5%)”.

Regarding `N#CC1(NC(=O)C2CCN(C(=O)COc3ccc(Cl)cc3Cl)CC2)CC1` [Ras-001], the percent covalent labeling at 10 µM reads like this: under setting [1], not above 5%; under setting [2], not above 5%; under setting [3], not above 5%.

Regarding `C=CC(=O)NC1CCN(C(=O)COc2c(Cl)cc(Cl)cc2Cl)CC1` [Ras-002], the percent covalent labeling at 10 µM by setting is: under setting [1], not above 5%; under setting [2], not above 5%; under setting [3], not above 5%.

For `C=CC(=O)NC1CCN(C(=O)Cn2cnc3ccccc32)CC1` [Ras-003], the percent covalent labeling at 10 µM reads like this: under setting [1], not above 5%; under setting [2], not above 5%; under setting [3], not above 5%.

As to `C=CC(=O)NC1CCN(C(=O)Cn2ncc3ccccc32)CC1` [Ras-004], the percent covalent labeling at 10 µM was not above 5% under setting [1], not above 5% under setting [2] and not above 5% under setting [3].

Consider `C=CC(=O)NC1CCN(C(=O)CCn2cnc3ccccc32)CC1` [Ras-005], for which the percent covalent labeling at 10 µM under setting [1] is not above 5%, the percent covalent labeling at 10 µM under setting [2] was not above 5% and the percent covalent labeling at 10 µM under setting [3] is not above 5%.

As to `C=CC(=O)NC1CCN(C(=O)CCn2ncc3ccccc32)CC1` [Ras-006], the percent covalent labeling at 10 µM is not above 5% under setting [1], not above 5% under setting [2] and not above 5% under setting [3].

For the compound `CN(C)C/C=C/C(=O)NC1CCN(C(=O)COc2ccc(Cl)cc2Cl)CC1` [Ras-007], the percent covalent labeling at 10 µM reads like this: under setting [1], not above 5%; under setting [2], not above 5%; under setting [3], not above 5%.

Take `C=CS(=O)(=O)NC1CCN(C(=O)COc2c(Cl)cc(Cl)cc2Cl)CC1` [Ras-008]: the percent covalent labeling at 10 µM was not above 5% under setting [1], not above 5% under setting [2] and not above 5% under setting [3].

Regarding `C=CS(=O)(=O)NC1CCN(C(=O)Cn2ncc3ccccc32)CC1` [Ras-009], the percent covalent labeling at 10 µM reads like this: under setting [1], not above 5%; under setting [2], not above 5%; under setting [3], not above 5%.

Turning to `C=CS(=O)(=O)NC1CCN(C(=O)CCn2ncc3ccccc32)CC1` [Ras-010], the percent covalent labeling at 10 µM is not above 5% under setting [1], not above 5% under setting [2] and not above 5% under setting [3].

As to `C=CS(=O)(=O)NC1CCN(C(=O)COc2cc(C(F)(F)F)c(Cl)cc2Cl)CC1` [Ras-011], the percent covalent labeling at 10 µM by setting is: under setting [1], not above 5%; under setting [2], not above 5%; under setting [3], 20 to 40%.

As for `C=CS(=O)(=O)NC1CCN(C(=O)CCn2cnc3ccccc32)CC1` [Ras-012], the percent covalent labeling at 10 µM reads like this: under setting [1], not above 5%; under setting [2], not above 5%; under setting [3], not above 5%.

As for `C=CS(=O)(=O)NC1CCN(C(=O)COc2cc(C#N)c(Cl)cc2Cl)CC1` [Ras-013], the percent covalent labeling at 10 µM reads like this: under setting [1], not above 5%; under setting [2], not above 5%; under setting [3], 5 to 20%.

`C=CS(=O)(=O)NC1CCN(C(=O)Cn2cnc3ccccc32)CC1` [Ras-014]: the percent covalent labeling at 10 µM is not above 5% under setting [1], not above 5% under setting [2] and not above 5% under setting [3].

`C=CS(=O)(=O)NC1CCN(C(=O)COc2ccc(Cl)cc2Br)CC1` [Ras-015]: the percent covalent labeling at 10 µM was not above 5% under setting [1], not above 5% under setting [2] and 20 to 40% under setting [3].

Turning to `C=CS(=O)(=O)NC1CCN(C(=O)COc2ccc(Cl)cc2NC(C)=O)CC1` [Ras-016], the percent covalent labeling at 10 µM runs as follows: under setting [1], not above 5%; under setting [2], not above 5%; under setting [3], not above 5%.

For the compound `C=CS(=O)(=O)NC1CCN(C(=O)COc2ccc(Cl)cc2F)CC1` [Ras-017], the percent covalent labeling at 10 µM reads like this: under setting [1], not above 5%; under setting [2], not above 5%; under setting [3], not above 5%.

Consider `C=CS(=O)(=O)NC1CCN(C(=O)COc2ccc(Cl)cc2C)CC1` [Ras-018], for which the percent covalent labeling at 10 µM runs as follows: under setting [1], not above 5%; under setting [2], not above 5%; under setting [3], 20 to 40%.

As for `C=CS(=O)(=O)NC1CCN(C(=O)COc2cc(N)c(Cl)cc2Cl)CC1` [Ras-019], the percent covalent labeling at 10 µM is, setting by setting: under setting [1], not above 5%; under setting [2], not above 5%; under setting [3], 5 to 20%.

For `C=CS(=O)(=O)NC1CCN(C(=O)COc2ccc(Cl)cc2C(=O)OC)CC1` [Ras-020], the percent covalent labeling at 10 µM under setting [1] was not above 5%, the percent covalent labeling at 10 µM under setting [2] was not above 5% and the percent covalent labeling at 10 µM under setting [3] was not above 5%.

With `C=CS(=O)(=O)NC1CCN(C(=O)COc2ccc(Cl)cc2C#N)CC1` [Ras-021], the percent covalent labeling at 10 µM under setting [1] is not above 5%, the percent covalent labeling at 10 µM under setting [2] is not above 5% and the percent covalent labeling at 10 µM under setting [3] is not above 5%.

For the compound `C=CS(=O)(=O)NC1CCN(C(=O)COc2cc(NC(C)=O)c(Cl)cc2Cl)CC1` [Ras-022], the percent covalent labeling at 10 µM is, setting by setting: under setting [1], not above 5%; under setting [2], not above 5%; under setting [3], not above 5%.

With `C=CS(=O)(=O)NC1CCN(C(=O)COc2ccc(Cl)cc2C(N)=O)CC1` [Ras-023], the percent covalent labeling at 10 µM by setting is: under setting [1], not above 5%; under setting [2], not above 5%; under setting [3], not above 5%.

For `C=CS(=O)(=O)NC1CCN(C(=O)COc2cc(NC)c(Cl)cc2Cl)CC1` [Ras-024], the percent covalent labeling at 10 µM was not above 5% under setting [1], not above 5% under setting [2] and not above 5% under setting [3].

On to `C=CS(=O)(=O)NC1CCN(C(=O)COc2ccc(Cl)cc2C(=O)N(C)C)CC1` [Ras-025], for which the percent covalent labeling at 10 µM runs as follows: under setting [1], not above 5%; under setting [2], not above 5%; under setting [3], not above 5%.

Regarding `C=CS(=O)(=O)NC1CCN(C(=O)COc2cc(N(C)C)c(Cl)cc2Cl)CC1` [Ras-026], the percent covalent labeling at 10 µM by setting is: under setting [1], not above 5%; under setting [2], not above 5%; under setting [3], 5 to 20%.

With `C=CS(=O)(=O)NC1CCN(C(=O)COc2cc(OCCN)c(Cl)cc2Cl)CC1` [Ras-027], the percent covalent labeling at 10 µM is not above 5% under setting [1], not above 5% under setting [2] and not above 5% under setting [3].
